Where a name gives a salt, the structure may show the parent alone. Read-outs that look alike come from different tables or passages of the source.
How the values were obtained:
human CYP1A2 [1] = target: T1, human CYP1A2 (Homo sapiens, UniProt P05177); experiment: biochemical
T1 sequence (P05177 1-516): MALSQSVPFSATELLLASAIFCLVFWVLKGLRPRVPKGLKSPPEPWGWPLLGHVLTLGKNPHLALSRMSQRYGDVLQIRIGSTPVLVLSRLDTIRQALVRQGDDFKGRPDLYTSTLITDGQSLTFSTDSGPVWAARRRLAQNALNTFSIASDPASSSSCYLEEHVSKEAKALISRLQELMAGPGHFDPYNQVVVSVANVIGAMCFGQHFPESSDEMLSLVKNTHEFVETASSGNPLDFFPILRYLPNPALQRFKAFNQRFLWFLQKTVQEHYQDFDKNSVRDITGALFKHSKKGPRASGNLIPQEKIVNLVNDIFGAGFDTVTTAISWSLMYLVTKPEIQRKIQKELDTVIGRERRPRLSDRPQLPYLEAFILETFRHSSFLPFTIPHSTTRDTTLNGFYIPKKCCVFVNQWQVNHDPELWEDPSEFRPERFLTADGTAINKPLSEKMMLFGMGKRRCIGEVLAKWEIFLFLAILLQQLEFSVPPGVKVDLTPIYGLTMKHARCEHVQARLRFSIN

CYP3A4 = CYP3A4 (Homo sapiens, UniProt P08684)
CYP3A4, sequence (P08684 whole entry): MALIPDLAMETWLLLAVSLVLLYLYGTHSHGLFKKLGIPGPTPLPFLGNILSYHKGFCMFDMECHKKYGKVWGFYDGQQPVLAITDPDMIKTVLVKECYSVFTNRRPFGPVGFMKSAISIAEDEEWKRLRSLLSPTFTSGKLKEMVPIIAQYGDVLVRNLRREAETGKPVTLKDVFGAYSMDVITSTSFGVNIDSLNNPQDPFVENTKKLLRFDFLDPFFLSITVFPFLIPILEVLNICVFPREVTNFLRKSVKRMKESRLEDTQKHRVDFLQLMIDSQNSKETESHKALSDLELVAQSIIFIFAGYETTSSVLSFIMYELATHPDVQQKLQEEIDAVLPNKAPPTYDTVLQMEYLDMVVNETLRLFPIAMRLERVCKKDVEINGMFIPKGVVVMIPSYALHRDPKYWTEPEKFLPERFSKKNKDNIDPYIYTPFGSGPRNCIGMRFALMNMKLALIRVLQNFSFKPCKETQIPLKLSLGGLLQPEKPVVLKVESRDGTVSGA

[2] = target: Photinus pyralis (firefly) luciferase (Photinus pyralis, UniProt P08659); experiment: biochemical; format: biochemical
Photinus pyralis (firefly) luciferase, sequence (P08659 whole entry): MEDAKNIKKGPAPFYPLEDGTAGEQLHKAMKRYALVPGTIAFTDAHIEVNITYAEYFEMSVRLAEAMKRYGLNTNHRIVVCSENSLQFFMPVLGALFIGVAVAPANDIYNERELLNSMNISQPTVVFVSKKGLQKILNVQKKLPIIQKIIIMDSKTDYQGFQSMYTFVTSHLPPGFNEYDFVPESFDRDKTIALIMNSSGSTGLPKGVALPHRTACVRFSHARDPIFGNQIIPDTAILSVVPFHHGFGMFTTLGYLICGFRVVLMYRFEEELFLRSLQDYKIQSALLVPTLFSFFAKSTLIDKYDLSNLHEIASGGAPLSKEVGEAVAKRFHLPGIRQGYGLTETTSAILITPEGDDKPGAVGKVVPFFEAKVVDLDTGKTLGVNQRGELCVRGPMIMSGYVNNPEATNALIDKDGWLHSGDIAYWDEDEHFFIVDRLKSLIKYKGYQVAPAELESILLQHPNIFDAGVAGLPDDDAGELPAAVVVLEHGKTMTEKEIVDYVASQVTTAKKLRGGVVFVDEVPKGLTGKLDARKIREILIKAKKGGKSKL

human CYP2D6 [3] = target: T2, human CYP2D6 (Homo sapiens, UniProt P10635); experiment: biochemical
T2 sequence (P10635 whole entry): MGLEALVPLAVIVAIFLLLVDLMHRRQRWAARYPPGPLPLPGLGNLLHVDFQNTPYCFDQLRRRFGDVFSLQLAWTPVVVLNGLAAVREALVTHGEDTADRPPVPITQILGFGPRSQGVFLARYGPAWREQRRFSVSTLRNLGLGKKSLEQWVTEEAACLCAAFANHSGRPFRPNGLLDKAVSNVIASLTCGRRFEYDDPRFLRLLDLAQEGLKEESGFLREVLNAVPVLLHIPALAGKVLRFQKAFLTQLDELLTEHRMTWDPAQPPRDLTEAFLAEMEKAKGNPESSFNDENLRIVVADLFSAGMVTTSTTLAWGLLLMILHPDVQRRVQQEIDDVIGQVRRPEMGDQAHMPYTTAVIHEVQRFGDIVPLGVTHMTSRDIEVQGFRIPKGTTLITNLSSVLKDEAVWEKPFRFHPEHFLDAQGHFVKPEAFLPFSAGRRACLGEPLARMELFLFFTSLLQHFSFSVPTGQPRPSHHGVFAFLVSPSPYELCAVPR

human CYP2C9 [4] = target: T3, human CYP2C9 (Homo sapiens, UniProt P11712)
T3 sequence (P11712 whole entry): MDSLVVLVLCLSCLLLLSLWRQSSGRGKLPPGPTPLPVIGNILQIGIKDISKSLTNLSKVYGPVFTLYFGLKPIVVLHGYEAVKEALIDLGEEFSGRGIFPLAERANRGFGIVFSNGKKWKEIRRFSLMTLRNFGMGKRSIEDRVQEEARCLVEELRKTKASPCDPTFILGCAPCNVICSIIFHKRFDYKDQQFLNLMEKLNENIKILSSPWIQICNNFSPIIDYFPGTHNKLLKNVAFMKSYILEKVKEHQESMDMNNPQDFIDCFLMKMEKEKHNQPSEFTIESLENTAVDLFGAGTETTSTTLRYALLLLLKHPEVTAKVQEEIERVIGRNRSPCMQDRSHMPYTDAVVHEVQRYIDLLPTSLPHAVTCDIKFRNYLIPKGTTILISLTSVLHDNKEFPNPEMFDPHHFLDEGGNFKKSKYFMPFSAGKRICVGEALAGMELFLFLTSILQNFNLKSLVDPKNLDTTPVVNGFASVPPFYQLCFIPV

human CYP2C19 [5] = target: T4, human CYP2C19 (Homo sapiens, UniProt P33261); conditions: for CYP2C19 Efficacy (in parenthesis): human
T4 sequence (P33261 whole entry): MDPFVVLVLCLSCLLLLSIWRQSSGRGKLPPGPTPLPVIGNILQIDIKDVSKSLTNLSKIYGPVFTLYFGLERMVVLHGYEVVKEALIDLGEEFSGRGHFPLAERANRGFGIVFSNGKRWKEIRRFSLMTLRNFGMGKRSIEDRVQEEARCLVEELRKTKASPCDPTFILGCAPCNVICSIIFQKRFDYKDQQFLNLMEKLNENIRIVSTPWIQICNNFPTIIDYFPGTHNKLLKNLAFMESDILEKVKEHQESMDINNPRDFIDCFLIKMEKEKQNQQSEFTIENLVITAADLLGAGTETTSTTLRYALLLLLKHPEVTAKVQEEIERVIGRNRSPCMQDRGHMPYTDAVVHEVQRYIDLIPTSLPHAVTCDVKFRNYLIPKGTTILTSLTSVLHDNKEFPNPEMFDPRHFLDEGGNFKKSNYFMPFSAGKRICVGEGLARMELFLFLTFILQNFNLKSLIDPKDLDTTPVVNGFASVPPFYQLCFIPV

human CYP1A2 [6] = target: T1, human CYP1A2
human CYP2C19 [7] = target: T4, human CYP2C19; experiment: biochemical
human CYP2C9 [8] = target: T3, human CYP2C9; experiment: biochemical
human CYP2D6 [9] = target: T2, human CYP2D6; conditions: human
[10] = CYP1A2 IC50 (half-maximal inhibitory concentration)
[11] = CYP2D6 IC50 (half-maximal inhibitory concentration)
[12] = CYP2C9 IC50 (half-maximal inhibitory concentration)
[13] = CYP2C19 IC50 (half-maximal inhibitory concentration)

| Structure (SMILES) | CYP3A4 IC50 (CYP3A4) | Luciferase IC50 [2] | IC50 (human CYP2D6 [3]; CYP2D6 IC50) | CYP2C9 IC50 (human CYP2C9 [4]) | CYP3A4 IC50 (half-maximal inhibitory concentration) (CYP3A4) | Luciferase IC50 (half-maximal inhibitory concentration) [2] | IC50 (human CYP2D6 [3]; [11]) | IC50 (human CYP2C19 [7]; [13]) | also measured |
| --- | --- | --- | --- | --- | --- | --- | --- | --- | --- |
| CN1CC2c3ccccc3Oc3ccc(Cl)cc3C2C1 (stereo not shown) [Asenapine] | Inactive | Inactive | 0.09 µM | Inactive |  |  |  |  | IC50 (human CYP1A2 [1]; CYP1A2 IC50): 7.55 µM; CYP2C19 IC50 (human CYP2C19 [5]): Inactive |
| CN1CCC(N(Cc2ccccc2)c2ccccc2)CC1 [Bamipine] | Inactive | Inactive |  | Inactive |  |  |  |  | IC50 (human CYP2D6 [3]): 0.38 µM; CYP1A2 IC50 (human CYP1A2 [6]): Inactive; IC50 (human CYP2C19 [7]): 36.8 µM |
| c1ccc2cc3c(ccc4ccccc43)cc2c1 [Benz(a)anthracene] | Inactive |  | 50.5 µM |  |  |  |  |  | IC50 (human CYP1A2 [1]; CYP1A2 IC50): 0.86 µM; IC50 [2]: 6.12 µM; IC50 (human CYP2C9 [8]; CYP2C9 IC50): 36.4 µM; IC50 (human CYP2C19 [7]; CYP2C19 IC50): 15.9 µM |
| c1ccc2c(c1)c1cccc3ccc4cccc2c4c31 [Benzo(e)pyrene] | Inactive | Inactive | 55.4 µM | Inactive |  |  |  |  | IC50 (human CYP1A2 [1]; CYP1A2 IC50): 0.1 µM; CYP2C19 IC50 (human CYP2C19 [5]): Inactive |
| CN(Cc1cc(Br)cc(Br)c1N)C1CCCCC1 [Bromhexine hydrochloride] | Inactive | Inactive |  |  |  |  |  |  | IC50 (human CYP1A2 [1]): 28.1 ± 9.38 µM; IC50 (human CYP2D6 [3]): 0.01 ± 0.01 µM; IC50 (human CYP2C9 [8]): 19.5 ± 6.96 µM; IC50 (human CYP2C19 [7]): 4.36 µM |
| Cc1ccc(Cl)c(OCC(O)CNC(C)(C)C)c1 (stereo not shown) [Bupranolol] |  |  |  |  | Inactive | Inactive | 0.98 µM |  | IC50 (human CYP1A2 [1]; [10]): 15.5 µM; CYP2C9 IC50 (half-maximal inhibitory concentration) (human CYP2C9 [4]): Inactive; CYP2C19 IC50 (half-maximal inhibitory concentration) (human CYP2C19 [5]): Inactive |
| CCCCN(CCCC)CCCOC(=O)c1ccc(N)cc1 [Butacaine] |  |  |  |  | Inactive | Inactive | 0.03 µM | 38.9 µM | IC50 (human CYP1A2 [1]; [10]): 22.4 µM; IC50 (human CYP2C9 [8]; [12]): 26.4 µM |
| CN(Cc1ccc(C(C)(C)C)cc1)Cc1cccc2ccccc12 [Butenafine] | Inactive | Inactive | 0.39 µM |  |  |  |  |  | IC50 (human CYP1A2 [1]; CYP1A2 IC50): 24.6 µM; IC50 (human CYP2C9 [8]; CYP2C9 IC50): 16.3 µM; IC50 (human CYP2C19 [7]; CYP2C19 IC50): 9.91 µM |
| CN(C)CCCSc1ccccc1NC(=O)/C=C/c1ccccc1 [Cinanserin] |  |  |  |  | Inactive | Inactive | 0.52 µM | 29.6 µM | CYP1A2 IC50 (half-maximal inhibitory concentration) (human CYP1A2 [6]): Inactive; CYP2C9 IC50 (half-maximal inhibitory concentration) (human CYP2C9 [4]): Inactive; CYP2D6 Efficacy (in parenthesis) (human CYP2D6 [9]): 0.52 ± 0.22 (-96 ± 14) %; CYP2C19 Efficacy (in parenthesis) (human CYP2C19 [5]): 29.59 ± 16.13 (-78 ± 38) % |
| CC(C(O)c1ccccc1)N(C)C/C=C/c1ccccc1 (stereo not shown) [Cinnamedrine] |  |  |  |  | Inactive | Inactive |  |  | IC50 (human CYP1A2 [1]): 16.4 µM; IC50 (human CYP2D6 [3]): 0.11 µM; IC50 (human CYP2C9 [8]): 16.1 µM; IC50 (human CYP2C19 [7]): 1.46 µM |
| Clc1ccccc1C(c1ccccc1)(c1ccccc1)n1ccnc1 [Clotrimazole] |  |  |  |  |  | Inactive | 46.2 µM | 3.88 µM | CYP3A4 Efficacy (in parenthesis) (CYP3A4): 0.02 ± 0.01 (-96 ± 6) %; CYP1A2 Efficacy (in parenthesis) (human CYP1A2 [6]; human): 9.92 ± 2.76 (-108 ± 12) %; CYP2C9 Efficacy (in parenthesis) (human CYP2C9 [4]; human): 1.14 ± 0.44 (-107 ± 6) %; CYP2D6 Efficacy (in parenthesis) (human CYP2D6 [9]): 46.25 ± 14.89 (-110 ± 18) %; IC50 (human CYP2C9 [8]; [12]): 1.14 µM; CYP2C19 Efficacy (in parenthesis) (human CYP2C19 [5]): 3.88 ± 0.66 (-140 ± 14) % |
| NC(=O)C(c1ccccc1)(c1ccccc1)[C@@H]1CCN(CCc2ccc3c(c2)CCO3)C1 [Darifenacin hydrobromide] |  |  |  |  | Inactive | Inactive | 0.41 µM |  | CYP1A2 IC50 (half-maximal inhibitory concentration) (human CYP1A2 [6]): Inactive; CYP2C9 IC50 (half-maximal inhibitory concentration) (human CYP2C9 [4]): Inactive; CYP2D6 Efficacy (in parenthesis) (human CYP2D6 [9]): 0.41 ± 0.07 (-99 ± 4) %; CYP2C19 IC50 (half-maximal inhibitory concentration) (human CYP2C19 [5]): Inactive |
| CCN(CC)c1c([N+](=O)[O-])cc(C(F)(F)F)c(N)c1[N+](=O)[O-] [Dinitramine] |  |  |  |  | Inactive | Inactive | 55.8 µM | 19.3 µM | IC50 (human CYP1A2 [1]; [10]): 0.3 µM; IC50 (human CYP2C9 [8]; [12]): 74.5 µM |
| OC(CCCN1CCCCC1)(c1ccccc1)c1ccccc1 [Diphenidol] |  |  |  |  | Inactive | Inactive | 0.09 µM | 32.7 µM | CYP1A2 IC50 (half-maximal inhibitory concentration) (human CYP1A2 [6]): Inactive; CYP2C9 IC50 (half-maximal inhibitory concentration) (human CYP2C9 [4]): Inactive |
| CCc1ccc(C2CCNCC2)cc1 [Enefexine] | Inactive | Inactive |  | Inactive |  |  |  |  | IC50 (human CYP1A2 [1]): 23.2 µM; IC50 (human CYP2D6 [3]): 0.42 µM; CYP2C19 IC50 (human CYP2C19 [5]): Inactive |
| c1ccc2c(c1)-c1cccc3cccc-2c13 [Fluoranthene] | Inactive |  | 21.5 µM |  |  |  |  |  | IC50 (human CYP1A2 [1]; CYP1A2 IC50): 0.73 µM; IC50 [2]: 62.1 µM; IC50 (human CYP2C9 [8]): 67.8 µM; IC50 (human CYP2C19 [7]; CYP2C19 IC50): 50.2 µM |
| COc1ccc(-c2coc3cc(O)ccc3c2=O)cc1 [Formononetin] |  |  |  |  | Inactive |  | 51.6 µM | 62.3 µM | IC50 (human CYP1A2 [1]; [10]): 14.4 µM; IC50 [2]: 3.18 µM; IC50 (human CYP2C9 [8]; [12]): 0.29 µM |
| CC(Cc1ccccc1)N(C)Cc1ccco1 (stereo not shown) [Furfenorex] | Inactive | Inactive | 0.85 µM | Inactive |  |  |  |  | CYP1A2 IC50 (human CYP1A2 [6]): Inactive; IC50 (human CYP2C19 [7]; CYP2C19 IC50): 6.65 µM |
| CCN(CC)CCNc1ccc(CO)c2sc3ccccc3c(=O)c12 [Hycanthone] | Inactive | Inactive | 3.77 µM | Inactive |  |  |  |  | IC50 (human CYP1A2 [1]; CYP1A2 IC50): 0.58 µM; CYP2C19 IC50 (human CYP2C19 [5]): Inactive |
| CN1CCCCC1CCN1c2ccccc2Sc2ccc([S+](C)[O-])cc21 (stereo not shown) [Mesoridazine] |  |  |  |  | Inactive | Inactive | 0.09 µM |  | CYP1A2 IC50 (half-maximal inhibitory concentration) (human CYP1A2 [6]): Inactive; CYP2C9 IC50 (half-maximal inhibitory concentration) (human CYP2C9 [4]): Inactive; CYP2C19 IC50 (half-maximal inhibitory concentration) (human CYP2C19 [5]): Inactive |
| CN1CCCC(CC2c3ccccc3Sc3ccccc32)C1 (stereo not shown) [Metixene hydrochloride] |  |  |  |  | Inactive | Inactive | 0.44 µM | 7.76 µM | CYP1A2 IC50 (half-maximal inhibitory concentration) (human CYP1A2 [6]): Inactive; CYP2C9 IC50 (half-maximal inhibitory concentration) (human CYP2C9 [4]): Inactive |
| CC(COc1ccccc1)N(CCCl)Cc1ccccc1 (stereo not shown) [Phenoxybenzamine hydrochloride] |  |  |  |  | Inactive | Inactive | 0.38 µM | 2.44 µM | IC50 (human CYP1A2 [1]; [10]): 65.8 µM; IC50 (human CYP2C9 [8]; [12]): 22.8 µM |
| CC(CN1c2ccccc2Sc2ccccc21)N(C)C (stereo not shown) [Promethazine hydrochloride] |  |  |  |  | Inactive | Inactive | 0.89 µM | 14.5 µM | IC50 (human CYP1A2 [1]; [10]): 2.23 µM |
| Cc1nc2n(c(=O)c1CCN1CCC(C(=O)c3ccc(F)cc3)CC1)CCS2 [Setoperone] | Inactive | Inactive |  |  |  |  |  |  | IC50 (human CYP1A2 [1]): 32.3 ± 4.12 µM; IC50 (human CYP2D6 [3]): 0.48 ± 0.08 µM; IC50 (human CYP2C9 [8]): 27.2 ± 16.6 µM; CYP2C19 IC50 (human CYP2C19 [5]): Inactive |
| O=C(CCCN1CCC2(CC1)C(=O)NCN2c1ccccc1)c1ccc(F)cc1 [Spiperone] | Inactive | Inactive |  | Inactive |  |  |  |  | IC50 (human CYP2D6 [3]; CYP2D6 IC50, mean ± standard deviation from three experiments): 0.79 ± 0.18 µM; CYP1A2 IC50 (human CYP1A2 [6]): Inactive; CYP2C19 IC50 (human CYP2C19 [5]): Inactive |
| CCCC[N+](CCCC)(CCCC)CCCC [Tetrabutylammonium bromide] | Inactive | Inactive | 0.01 µM | Inactive |  |  |  |  | CYP1A2 IC50 (human CYP1A2 [6]): Inactive; CYP2C19 IC50 (human CYP2C19 [5]): Inactive |
| COC1CC(=C(c2cccs2)c2cccs2)C[N+](C)(C)C1 (stereo not shown) [Timepidium bromide] | Inactive | Inactive | 0.29 µM | Inactive |  |  |  |  | CYP1A2 IC50 (human CYP1A2 [6]): Inactive; CYP2C19 IC50 (human CYP2C19 [5]): Inactive |
| Oc1cc(Cl)ccc1Oc1ccc(Cl)cc1Cl [Triclosan] | Inactive | Inactive | 32.8 µM |  |  |  |  |  | IC50 (human CYP1A2 [1]; CYP1A2 IC50): 20.8 µM; IC50 (human CYP2C19 [7]; CYP2C19 IC50): 0.71 µM |
| CS(=O)(=O)c1ccc(-c2cn3ccccc3n2)cc1 [Zolimidine] | Inactive |  | 24.2 µM |  |  |  |  |  | IC50 (human CYP1A2 [1]; CYP1A2 IC50): 0.7 µM; IC50 [2]: 6.95 µM; IC50 (human CYP2C9 [8]; CYP2C9 IC50): 24.1 µM; IC50 (human CYP2C19 [7]; CYP2C19 IC50): 25.7 µM |

Reference: article PMC12155096 (International Journal of Molecular Sciences, 2025)
